Data set [1] in a line: Fluorescence quantum yield. It is filed as physicochemical. Particulars: CHCl3; Reference: S-13 with Φ=1.00. From the text: IR spectra: Perkin Elmer Spectrum BX II, using a diamond anvil cell; UV/Vis spectra: Varian Cary 5000 and Bruins Omega 20; fluorescence spectra: Varian Eclispe; NMR spectroscopy: Varian Vnmrs 600 (600 MHz, 400 MHz, 200 MHz); mass spectrometry: Thermo Finnigan LQT FT.

In the next data set the test system is lens capsule. Put plainly: Dye tests on porcine eyes (lens capsule staining). More on the design: key: +++: visually assessed very strong coloration; ++: good coloration; +: satisfactory coloration; −: weak or absent coloration. The note with it: incubated, rinsed after one minute. The procedure: For the dye test, in each case 5 mg dye was dissolved in 500 μL ethanol and diluted to 2 mL with BSS Plus solution as the stock solution, and then correspondingly further diluted. As an alternative, one can prepare stock solutions of the dye by dissolving, for example, 5 mg dye in 1 mL distilled water, adding 7 mL BSS solution and then combining with 1 mL NaCl solution having an osmolality of 620 (approximately 2%) in order to restore the original osmolality of the BSS solution (308). This stock solution can be correspondingly further diluted with BSS solution as required. Enucleated porcine eyes were used having a post mortem time period of a few hours. To dye the lens capsule, the cornea was first removed. Thereafter, the iris was resected and the capsular support was severed. The lens with intact lens capsule was removed and placed in a bowl filled with BSS. The lenses were thereafter incubated with the dyes according to the invention at various concentrations and then rinsed after one minute. The dye pattern was photographically documented, whereby the coloration was assessed without additional illumination, and fluorescence was assessed with illumination (Xenon lamp, halogen lamp with typical endoillumination source and fiber optics). The lens capsule is a very good model for dyeing due to the fact that it is a basal membrane, as is the ILM of the retina. Both structures are important target structures in eye surgery.

Molecules are shown by their SMILES.

The compound `CC1(C)C(/C=C/C=C2\N(CCC(=O)O)c3ccc4ccccc4c3C2(C)C)=[N+](CCC(=O)O)c2ccc3ccccc3c21.[Br-]` [Dye 3a, 3,3′-Di-(2-carboxyethyl)-1,1,1′,1′-tetramethyl-1H-dibenzo[e]indocarbocyanine bromide] gave a Fluorescence quantum yield in data set [1] of 0.35. Besides, the “coloration of lens capsule” value with lens capsule (dye concentration 0.0025%) was “−”; in the data set with lens capsule (dye concentration 0.025%), “+”; with lens capsule (dye concentration 0.25%) it was “++”; in the data set on lens capsule (dye concentration 0.5%) it was “++”.
Consider `CC1(C)C(=CC=CC2=[N+](CCCCC(=O)O)c3ccc4ccccc4c3C2(C)C)N(CCCCC(=O)O)c2ccc3ccccc3c21.[Br-]` [Dye 3b, 3,3′-Di-(4-carboxybutyl)-1,1,1′,1′-tetramethyl-1H-dibenzo[e]indocarbocyanine bromide], for which the Fluorescence quantum yield in data set [1] came to 0.49.
Regarding `CC1(C)C(=CC=CC2=[N+](CCCCCC(=O)O)c3ccc4ccccc4c3C2(C)C)N(CCCCCC(=O)O)c2ccc3ccccc3c21.[Br-]` [Dye 3c, 3,3′-Di-(5-carboxypentyl)-1,1,1′,1′-tetramethyl-1H-dibenzo[e]indocarbocyanine bromide], in data set [1], the Fluorescence quantum yield worked out at 0.50. The “coloration of lens capsule” value is “−” with lens capsule (dye concentration 0.0025%), “−” in the data set on lens capsule (dye concentration 0.025%), “+++” with lens capsule (dye concentration 0.25%) and “+++” with lens capsule (dye concentration 0.5%).
In data set [1], `CC1(C)C(=CC=CC2=[N+](CCCCCCCC(=O)O)c3ccc4ccccc4c3C2(C)C)N(CCCCCCCC(=O)O)c2ccc3ccccc3c21.[Br-]` [Dye 3d, 3,3′-Di-(7-carboxyheptyl)-1,1,1′,1′-tetramethyl-1H-dibenzo[e]indocarbocyanine bromide] returned a Fluorescence quantum yield of 0.43. Also, the “coloration of lens capsule” value is “−” in the data set with lens capsule (dye concentration 0.0025%), “−” in the data set with lens capsule (dye concentration 0.025%), “+” with lens capsule (dye concentration 0.25%) and “+++” in the data set with lens capsule (dye concentration 0.5%).
`CC1(C)C(=CC=CC2=[N+](CCCCCCCCCC(=O)O)c3ccc4ccccc4c3C2(C)C)N(CCCCCCCCCC(=O)O)c2ccc3ccccc3c21.[Br-]` [Dye 3e, 3,3′-Di-(9-carboxynonyl)-1,1,1′,1′-tetramethyl-1H-dibenzo[e]indocarbocyanine bromide] returned a Fluorescence quantum yield in data set [1] of 0.59. For the same compound, the “coloration of lens capsule” value in the data set on lens capsule (dye concentration 0.0025%) was “−”; in the data set with lens capsule (dye concentration 0.025%), “−”; in the data set with lens capsule (dye concentration 0.25%), “++”; in the data set on lens capsule (dye concentration 0.5%), “++”.
`CC1(C)C(=CC=CC2=[N+](CCCCCCCCCCC(=O)O)c3ccc4ccccc4c3C2(C)C)N(CCCCCCCCCCC(=O)O)c2ccc3ccccc3c21.[Br-]` [Dye 3f, 3,3′-Di-(10-carboxydecyl)-1,1,1′,1′-tetramethyl-1H-dibenzo[e]indocarbocyanine bromide] returned a Fluorescence quantum yield in data set [1] of 0.33.
The compound `CC1(C)C(=CC=CC2=[N+](CCCCCCCCCCCC(=O)O)c3ccc4ccccc4c3C2(C)C)N(CCCCCCCCCCCC(=O)O)c2ccc3ccccc3c21.[Br-]` [Dye 3g, 3,3′-Di-(11-carboxyundecyl)-1,1,1′,1′-tetramethyl-1H-dibenzo[e]indocarbocyanine bromide] came in with a Fluorescence quantum yield in data set [1] of 0.35. Besides, the “coloration of lens capsule” value in the data set on lens capsule (dye concentration 0.0025%) is reported as “−”; with lens capsule (dye concentration 0.025%), “−”; in the data set on lens capsule (dye concentration 0.25%) it was “++”; with lens capsule (dye concentration 0.5%), “++”.
Regarding `CCOC(=O)CCCCCCN1C(=CC=CC2=[N+](CCCCCCC(=O)OCC)c3ccc4ccccc4c3C2(C)C)C(C)(C)c2c1ccc1ccccc21.[Br-]` [Dye 3p, 3,3′-Di-(6-ethoxycarbonylhexyl)-1,1,1′,1′-tetramethyl-1H-dibenzo[e]indocarbocyanine bromide], in data set [1], the Fluorescence quantum yield is 0.35.

(Values after patent US8835484B2, “Naphthocyanines for use as contrast agents” (Alamedics GmbH & Co. KG, priority 2010, dated 2014).)
